We go through one substance from patent US10874107B2, “β-lactamase targeted photosensitizer for pesticide and pest detection” (The General Hospital Corporation, priority 2012, dated 2020).

Data set [1] in a line: UV-visible and fluorescence emission spectra of prodrug vs. free photosensitizer (TBO). The class given is physicochemical.
Data set [2] addresses β-lactamase from Enterobacter cloacae (Enterobacter cloacae, UniProt P05364). In words: Enzyme-mediated cleavage of the prodrug (fluorescence emission). The format is biochemical. The text has this:
FIGS. 6A and B show plots of (a) fluorescence emission vs. wavelength and (b) fluorescence emission vs. time for the Cephalosporanic acid-photosensitizer prodrug, depicting the enzyme-mediated cleavage of the prodrug.
The prodrug obtained was further studied for release of photosensitizer in presence of β-lactamase from Enterobacter cloacae. For the fluorescence emission study of the prodrug, the solvent employed was water, and the excitation wavelength 635 nm in the presence of beta-lactamase enzyme (from Enterobacter cloacae). Time-dependent fluorescence emission was also measured for photosensitizer release from the prodrug in the presence of enzyme. […] Thus, the prodrug was ynthesized and characterized.

Chain of β-lactamase from Enterobacter cloacae (P05364 21-381): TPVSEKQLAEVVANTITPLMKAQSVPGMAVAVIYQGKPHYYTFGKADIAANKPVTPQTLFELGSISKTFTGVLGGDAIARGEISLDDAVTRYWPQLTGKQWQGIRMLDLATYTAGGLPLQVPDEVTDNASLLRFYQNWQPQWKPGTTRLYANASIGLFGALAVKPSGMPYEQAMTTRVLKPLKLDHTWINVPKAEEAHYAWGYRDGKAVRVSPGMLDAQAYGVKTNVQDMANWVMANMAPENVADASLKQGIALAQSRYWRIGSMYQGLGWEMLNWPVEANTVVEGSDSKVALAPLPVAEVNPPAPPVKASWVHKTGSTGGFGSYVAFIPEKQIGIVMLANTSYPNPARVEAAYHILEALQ

As to “Cephalosporanic Acid-Toluidine blueO Prodrug”, in data set [1], the “quenching of the photosensitizer in the conjugated form” value is listed as “quantitative quenching”. Also, in data set [1] (635 nm excitation, ethanol), the “reduction in fluorescence emission maxima (prodrug vs. TBO)” value is reported as ~8 fold. In data set [1] (ethanol, 2.0×10^−5 M, vs. TBO), the “shift in the absorption spectra (UV-visible)” value was “blue shift”. Besides, the lactamase-specific activity result in data set [2] is given as “demonstrated lactamase-specific activity”. The “increase in excited stated properties (fluorescence emission) on incubation with enzyme” value in data set [2] (water, excitation 635 nm, within minutes of incubation with β-lactamase) is on record as ~5 fold.
